Our source for the IC50 values is US12441703B2, “Carboxamides as modulators of sodium channels” (VERTEX PHARMACEUTICALS INCORPORATED, priority 2019, dated 2025).

human NaV 1.8, sequence (Q9Y5Y9 whole entry, looked up, the tested form may be a part): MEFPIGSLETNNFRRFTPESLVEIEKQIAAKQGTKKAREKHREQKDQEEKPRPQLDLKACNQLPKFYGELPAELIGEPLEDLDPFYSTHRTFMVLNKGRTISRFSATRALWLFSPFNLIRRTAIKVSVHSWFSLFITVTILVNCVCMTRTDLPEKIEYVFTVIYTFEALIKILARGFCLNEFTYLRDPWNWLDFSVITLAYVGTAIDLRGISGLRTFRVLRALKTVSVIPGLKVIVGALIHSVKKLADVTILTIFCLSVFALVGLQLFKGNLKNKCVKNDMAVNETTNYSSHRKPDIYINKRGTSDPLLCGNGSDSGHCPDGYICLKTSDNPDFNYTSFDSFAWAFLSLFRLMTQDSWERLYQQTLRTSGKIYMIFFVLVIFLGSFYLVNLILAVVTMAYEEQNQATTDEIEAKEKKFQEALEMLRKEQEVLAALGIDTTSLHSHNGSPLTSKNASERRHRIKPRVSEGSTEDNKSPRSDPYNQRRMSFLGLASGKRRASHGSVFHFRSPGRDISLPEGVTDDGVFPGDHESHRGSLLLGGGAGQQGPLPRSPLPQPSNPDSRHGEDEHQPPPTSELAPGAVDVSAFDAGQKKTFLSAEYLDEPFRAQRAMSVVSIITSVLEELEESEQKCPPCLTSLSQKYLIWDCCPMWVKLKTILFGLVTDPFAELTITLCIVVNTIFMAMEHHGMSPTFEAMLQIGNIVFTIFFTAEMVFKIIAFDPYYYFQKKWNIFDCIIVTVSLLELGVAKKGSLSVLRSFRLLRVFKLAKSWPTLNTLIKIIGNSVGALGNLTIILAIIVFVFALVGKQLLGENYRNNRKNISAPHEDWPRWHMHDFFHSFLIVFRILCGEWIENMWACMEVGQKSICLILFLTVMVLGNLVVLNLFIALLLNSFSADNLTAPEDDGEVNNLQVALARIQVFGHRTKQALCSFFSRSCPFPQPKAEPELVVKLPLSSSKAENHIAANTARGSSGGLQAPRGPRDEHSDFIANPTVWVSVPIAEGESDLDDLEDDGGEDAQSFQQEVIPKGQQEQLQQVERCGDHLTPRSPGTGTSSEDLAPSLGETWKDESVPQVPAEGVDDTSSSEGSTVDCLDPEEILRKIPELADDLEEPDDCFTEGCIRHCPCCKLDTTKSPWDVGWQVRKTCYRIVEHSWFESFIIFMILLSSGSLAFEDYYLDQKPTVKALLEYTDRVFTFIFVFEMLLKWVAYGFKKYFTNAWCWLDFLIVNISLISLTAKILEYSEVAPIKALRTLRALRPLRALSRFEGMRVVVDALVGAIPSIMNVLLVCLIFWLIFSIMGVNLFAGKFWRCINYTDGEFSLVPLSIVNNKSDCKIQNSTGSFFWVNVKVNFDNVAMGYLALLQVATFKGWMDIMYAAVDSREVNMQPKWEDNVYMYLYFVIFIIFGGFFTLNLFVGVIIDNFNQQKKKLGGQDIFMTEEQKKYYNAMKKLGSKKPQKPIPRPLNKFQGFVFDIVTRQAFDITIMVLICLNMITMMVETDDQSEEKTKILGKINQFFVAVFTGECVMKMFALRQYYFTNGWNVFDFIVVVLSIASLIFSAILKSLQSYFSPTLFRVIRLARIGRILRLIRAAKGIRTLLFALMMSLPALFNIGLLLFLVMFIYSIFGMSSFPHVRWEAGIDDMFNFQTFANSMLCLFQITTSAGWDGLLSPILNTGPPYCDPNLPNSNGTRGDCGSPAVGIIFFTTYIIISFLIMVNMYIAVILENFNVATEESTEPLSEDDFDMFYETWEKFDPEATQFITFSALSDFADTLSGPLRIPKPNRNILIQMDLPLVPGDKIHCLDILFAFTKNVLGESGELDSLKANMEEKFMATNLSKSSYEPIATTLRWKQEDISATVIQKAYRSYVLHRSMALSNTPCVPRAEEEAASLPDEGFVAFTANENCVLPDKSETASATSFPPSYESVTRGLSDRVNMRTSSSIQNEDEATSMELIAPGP

The assay has as its target human NaV 1.8 (Homo sapiens, UniProt Q9Y5Y9). Kind of assay: E-VIPR assay for detecting and measuring NaV inhibition properties. The assay is classed as cell-based. Particulars: E-VIPR assay conducted in the presence of human serum; HEK cells expressing truncated human NaV 1.8; read-out: IC50. A digest of the protocol: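 Membrane-potential (coumarin/oxonol) readout after 10 s of 10 Hz biphasic electrical stimulation on E-VIPR. Compounds: 11-point 3-fold dilutions, […], 0.625% DMSO, 30 min at room temperature, human serum optional. Cells: HEK expressing truncated human NaV1.8 co-transduced with KIR2.1.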
What is called IC50 is the concentration that gives 50% inhibition. `COc1cc(OC(F)(F)F)ccc1Oc1cc(C2CC3CCC2C3)cc(F)c1C(=O)Nc1ccnc(C(N)=O)c1` (centres unmarked) [Compound 1020, 4-[[2-fluoro-6-[2-methoxy-4-(trifluoromethoxy)phenoxy]-4-norboman-2-yl-benzoyl]amino]pyridine-2-carboxamide]: the IC50 came out at 9 nM.

As for `[2H]C([2H])([2H])Oc1cc(OC(F)(F)F)ccc1Oc1cc(C#CCC(C)C)cc(F)c1C(=O)Nc1ccnc(C(N)=O)c1` [Compound 1021, 4-[[2-fluoro-4-(4-methylpent-1-ynyl)-6-[2-(trideuteriomethoxy)-4-(trifluoromethoxy)phenoxy]benzoyl]amino]pyridine-2-carboxamide], the IC50 came out at 41 nM.

Take `[2H]C([2H])([2H])Oc1cc(OC(F)(F)F)ccc1Oc1cc(C#CC(C)(C)C)cc(F)c1C(=O)Nc1ccnc(C(N)=O)c1` [Compound 1022]: the IC50 is 190 nM.

Take `[2H]C([2H])([2H])Oc1cc(OC(F)(F)F)ccc1Oc1cc(C#CC2CC2)cc(F)c1C(=O)Nc1ccnc(C(N)=O)c1` [Compound 1023]: the IC50 worked out at 100 nM.

With `[2H]C([2H])([2H])Oc1cc(OC(F)(F)F)ccc1Oc1cc(C#CC2CCC2)cc(F)c1C(=O)Nc1ccnc(C(N)=O)c1` [Compound 1024], the IC50 amounted to 150 nM.

For the compound `COc1cc(OC(F)(F)F)ccc1Oc1ccc(C(F)(F)F)c(SC)c1C(=O)Nc1ccnc(C(N)=O)c1` [Compound 1025, 4-[[6-[2-methoxy-4-(trifluoromethoxy)phenoxy]-2-methylsulfanyl-3-(trifluoromethyl)benzoyl]amino]pyridine-2-carboxamide], the IC50 is 2 nM.

As for `COc1cc(OC(F)(F)F)ccc1Oc1ccc(C(F)(F)F)c(OCCN(C)C)c1C(=O)Nc1ccnc(C(N)=O)c1` [Compound 1027], the concentration for half-maximal inhibition (IC50) is more than 3000 nM.

With `COc1cc(OC(F)(F)F)ccc1Oc1ccc(C(F)(F)F)c(OCCC2CC2)c1C(=O)Nc1ccnc(C(N)=O)c1` [Compound 1028], the IC50 is 590 nM.

In the case of `COc1cc(OC(F)(F)F)ccc1Oc1cc(C2=CCC(C(F)(F)F)CC2)ccc1C(=O)Nc1ccnc(C(N)=O)c1` (centres unmarked) [Compound 1029, 4-[[2-[2-methoxy-4-(trifluoromethoxy)phenoxy]-4-[4-(trifluoromethyl)cyclohexen-1-yl]benzoyl]amino]pyridine-2-carboxamide], the IC50 amounted to 695 nM.

For the compound `COc1cc(OC(F)(F)F)ccc1Oc1cc(C2=CCOC2)ccc1C(=O)Nc1ccnc(C(N)=O)c1` [Compound 1030], the IC50 was 330 nM.

Turning to `COc1cc(OC(F)(F)F)ccc1Oc1cc(C2=CCC(C(F)(F)F)CC2)ccc1C(=O)Nc1ccnc(C(N)=O)c1` (centres unmarked) [Compound 1031], the IC50 is 2050 nM.

`COc1cc(OC(F)(F)F)ccc1Oc1cc(C2CCOC2)ccc1C(=O)Nc1ccnc(C(N)=O)c1` (centres unmarked) [Compound 1033]: the IC50 was 840 nM.

Turning to `COc1cc(OC(F)(F)F)ccc1Oc1cc2c(c(F)c1C(=O)Nc1ccc(C(N)=O)nc1)OCCO2` [Compound 1034, 5-[[5-fluoro-7-[2-methoxy-4-(trifluoromethoxy)phenoxy]-2,3-dihydro-1,4-benzodioxine-6-carbonyl]amino]pyridine-2-carboxamide], the IC50 stood at 160 nM.

Turning to `COc1cc(OC(F)(F)F)ccc1Oc1cc2c(c(F)c1C(=O)Nc1ccnc(C(N)=O)c1)OCCO2` [Compound 1035], the IC50 came out at 17 nM.

Turning to `[2H]C([2H])([2H])Oc1cc(OC(F)(F)F)ccc1Oc1cc2c(cc1C(=O)Nc1ccnc(C(N)=O)c1)OCCO2` [Compound 1036, 4-[[6-[2-(trideuteriomethoxy)-4-(trifluoromethoxy)phenoxy]-2,3-dihydro-1,4-benzodioxine-7-carbonyl]amino]pyridine-2-carboxamide], the IC50 is 1750 nM.

With `[2H]C([2H])([2H])Oc1cc(OC(F)(F)F)ccc1Oc1cc2c(cc1C(=O)Nc1ccc(C(N)=O)nc1)OCCO2` [Compound 1037], the IC50 was more than 3000 nM.

Take `COc1cc(OC(F)(F)F)ccc1Oc1cc(OC2C=C(F)C2)cc(C)c1C(=O)Nc1ccnc(C(N)=O)c1` (centres unmarked) [Compound 1038, 4-[[4-(3-fluorocyclobut-2-en-1-yl)oxy-2-[2-methoxy-4-(trifluoromethoxy)phenoxy]-6-methyl-benzoyl]amino]pyridine-2-carboxamide]: the concentration for half-maximal inhibition (IC50) turned out to be 170 nM.

In the case of `[2H]C([2H])([2H])Oc1cc(OC(F)(F)F)ccc1Oc1c(C)cc(C(F)(F)F)cc1C(=O)Nc1ccnc(C(N)=O)c1` [Compound 1039, 4-[[3-methyl-2-[2-(trideuteriomethoxy)-4-(trifluoromethoxy)phenoxy]-5-(trifluoromethyl)benzoyl]amino]pyridine-2-carboxamide], the IC50 is more than 3000 nM.

Consider `COc1c(Oc2cc3c(c(F)c2C(=O)Nc2ccnc(C(N)=O)c2)OCC(C)(C)O3)ccc(OC(F)(F)F)c1F` [Compound 1040, 4-(5-fluoro-7-(3-fluoro-2-methoxy-4-(trifluoromethoxy)phenoxy)-2,2-dimethyl-2,3-dihydrobenzo[b][1,4]dioxine-6-carboxamido)picolinamide], for which the IC50 was 6 nM.

In the case of `COc1c(Oc2cc3c(c(F)c2C(=O)Nc2ccnc(C(N)=O)c2)OC(C)(C)CO3)ccc(OC(F)(F)F)c1F` [Compound 1041, 4-(5-fluoro-7-(3-fluoro-2-methoxy-4-(trifluoromethoxy)phenoxy)-3,3-dimethyl-2,3-dihydrobenzo[b][1,4]dioxine-6-carboxamido)picolinamide], the IC50 is 38 nM.
